ChEMBL document CHEMBL4622979, “Non-rigid Diarylmethyl Analogs of Baloxavir as Cap-Dependent Endonuclease Inhibitors of Influenza Viruses” (J Med Chem, 2020)

Legend:
[1] = MRTlast in CD1 mouse liver assessed as (12aR)-12-(Diphenylmethyl)-7-hydroxy-3,4,12,12a-tetrahydro-1H-[1,4]oxazino[3,4-c]pyrido[2,1-f ][1,2,4]triazine-6,8-dione level at 15 mg/kg, po administered as single dose measured up to 24 hrs by LC-MS/MS analysis; type: ADME, organism-based; conditions: in vivo
[2] = AUClast in CD1 mouse kidney assessed as (12aR)-12-(Diphenylmethyl)-7-hydroxy-3,4,12,12a-tetrahydro-1H-[1,4]oxazino[3,4-c]pyrido[2,1-f ][1,2,4]triazine-6,8-dione level at 15 mg/kg, po administered as single dose measured up to 24 hrs by LC-MS/MS analysis; type: ADME, organism-based; conditions: in vivo
[3] = Cmax in CD1 mouse lung assessed as (12aR)-12-(Diphenylmethyl)-7-hydroxy-3,4,12,12a-tetrahydro-1H-[1,4]oxazino[3,4-c]pyrido[2,1-f ][1,2,4]triazine-6,8-dione level at 15 mg/kg, po administered as single dose by LC-MS/MS analysis; type: ADME, organism-based; design: dose 15 mg/kg, route oral; conditions: in vivo
[4] = Cmax in CD1 mouse small intestine assessed as (12aR)-12-(Diphenylmethyl)-7-hydroxy-3,4,12,12a-tetrahydro-1H-[1,4]oxazino[3,4-c]pyrido[2,1-f ][1,2,4]triazine-6,8-dione level at 15 mg/kg, po administered as single dose measured up to 24 hrs by LC-MS/MS analysis; type: ADME, organism-based; design: dose 15 mg/kg, route oral; conditions: in vivo
[5] = Cmax in CD1 mouse trachea assessed as (12aR)-12-(Diphenylmethyl)-7-hydroxy-3,4,12,12a-tetrahydro-1H-[1,4]oxazino[3,4-c]pyrido[2,1-f ][1,2,4]triazine-6,8-dione level at 15 mg/kg, po administered as single dose measured up to 24 hrs by LC-MS/MS analysis; type: ADME, organism-based; design: dose 15 mg/kg, route oral; conditions: in vivo
[6] = Elimination rate constant in CD1 mouse plasma assessed as (12aR)-12-(Diphenylmethyl)-7-hydroxy-3,4,12,12a-tetrahydro-1H-[1,4]oxazino[3,4-c]pyrido[2,1-f ][1,2,4]triazine-6,8-dione level at 15 mg/kg, po administered as single dose measured up to 24 hrs by LC-MS/MS analysis; type: ADME, organism-based; conditions: in vivo
[7] = AUClast in CD1 mouse trachea assessed as (12aR)-12-(Diphenylmethyl)-7-hydroxy-3,4,12,12a-tetrahydro-1H-[1,4]oxazino[3,4-c]pyrido[2,1-f ][1,2,4]triazine-6,8-dione level at 15 mg/kg, po administered as single dose measured up to 24 hrs by LC-MS/MS analysis; type: ADME, organism-based; conditions: in vivo
[8] = AUCinfinity in CD1 mouse small intestine assessed as (12aR)-12-(Diphenylmethyl)-7-hydroxy-3,4,12,12a-tetrahydro-1H-[1,4]oxazino[3,4-c]pyrido[2,1-f ][1,2,4]triazine-6,8-dione level at 15 mg/kg, po administered as single dose measured up to 24 hrs by LC-MS/MS analysis; type: ADME, organism-based; design: dose 15 mg/kg, route oral, time infinity; conditions: in vivo
[9] = Tmax in CD1 mouse muscle assessed as (12aR)-12-(Diphenylmethyl)-7-hydroxy-3,4,12,12a-tetrahydro-1H-[1,4]oxazino[3,4-c]pyrido[2,1-f ][1,2,4]triazine-6,8-dione level at 15 mg/kg, po administered as single dose measured up to 24 hrs by LC-MS/MS analysis; type: ADME, organism-based, Muscle tissue; conditions: in vivo
[10] = Tmax in CD1 mouse spleen assessed as (12aR)-12-(Diphenylmethyl)-7-hydroxy-3,4,12,12a-tetrahydro-1H-[1,4]oxazino[3,4-c]pyrido[2,1-f ][1,2,4]triazine-6,8-dione level at 15 mg/kg, po administered as single dose measured up to 24 hrs by LC-MS/MS analysis; type: ADME, organism-based; conditions: in vivo
[11] = AUClast in CD1 mouse plasma assessed as (12aR)-12-(Diphenylmethyl)-7-hydroxy-3,4,12,12a-tetrahydro-1H-[1,4]oxazino[3,4-c]pyrido[2,1-f ][1,2,4]triazine-6,8-dione level at 15 mg/kg, po administered as single dose measured up to 24 hrs by LC-MS/MS analysis; type: ADME, organism-based; design: dose 15 mg/kg, time < 24 hr, route oral; conditions: in vivo
[12] = Cytotoxicity against human HepG2 cells assessed as reduction in cell viability measured after 24 hrs in presence of galactose by MTT assay; type: cell-based
[13] = AUCinfinity in CD1 mouse liver assessed as (12aR)-12-(Diphenylmethyl)-7-hydroxy-3,4,12,12a-tetrahydro-1H-[1,4]oxazino[3,4-c]pyrido[2,1-f ][1,2,4]triazine-6,8-dione level at 15 mg/kg, po administered as single dose measured up to 24 hrs by LC-MS/MS analysis; type: ADME, organism-based; design: dose 15 mg/kg, route oral, time infinity; conditions: in vivo
[14] = Cytotoxicity against human HepG2 cells assessed as reduction in cell viability measured after 24 hrs in presence of glucose by MTT assay; type: cell-based
[15] = AUCinfinity in CD1 mouse spleen assessed as (12aR)-12-(Diphenylmethyl)-7-hydroxy-3,4,12,12a-tetrahydro-1H-[1,4]oxazino[3,4-c]pyrido[2,1-f ][1,2,4]triazine-6,8-dione level at 15 mg/kg, po administered as single dose measured up to 24 hrs by LC-MS/MS analysis; type: ADME, organism-based; design: dose 15 mg/kg, route oral, time infinity; conditions: in vivo
[16] = Acute toxicity in CD1 mouse assessed as effect on food consumption at 2000 mg/kg, po measured for 2 weeks; type: organism-based; conditions: in vivo, 336 h
[17] = Half life in CD1 mouse muscle assessed as (12aR)-12-(Diphenylmethyl)-7-hydroxy-3,4,12,12a-tetrahydro-1H-[1,4]oxazino[3,4-c]pyrido[2,1-f ][1,2,4]triazine-6,8-dione level at 15 mg/kg, po administered as single dose measured up to 24 hrs by LC-MS/MS analysis; type: ADME, organism-based, Muscle tissue; conditions: in vivo
[18] = Ratio of AUClast in CD1 mouse small intestine to plasma assessed as baloxavir acid level at 15 mg/kg, po administered as single dose measured up to 24 hrs by LC-MS/MS analysis; type: ADME, organism-based; conditions: other tissue
[19] = Ratio of AUClast in CD1 mouse spleen to plasma assessed as baloxavir acid level at 15 mg/kg, po administered as single dose measured up to 24 hrs by LC-MS/MS analysis; type: ADME, organism-based; conditions: other tissue
[20] = Half life in CD1 mouse brain assessed as baloxavir acid level at 15 mg/kg, po administered as single dose measured up to 24 hrs by LC-MS/MS analysis; type: ADME, organism-based; conditions: in vivo
[21] = Half life in CD1 mouse blood assessed as baloxavir acid level at 15 mg/kg, po administered as single dose measured up to 24 hrs by LC-MS/MS analysis; type: ADME, organism-based; conditions: in vivo
[22] = MRTlast in CD1 mouse liver assessed as baloxavir acid level at 15 mg/kg, po administered as single dose measured up to 24 hrs by LC-MS/MS analysis; type: ADME, organism-based; conditions: in vivo
[23] = Half life in CD1 mouse plasma assessed as baloxavir acid level at 15 mg/kg, po administered as single dose measured up to 24 hrs by LC-MS/MS analysis; type: ADME, organism-based; conditions: in vivo
[24] = AUCinfinity in CD1 mouse kidney assessed as baloxavir acid level at 15 mg/kg, po administered as single dose measured up to 24 hrs by LC-MS/MS analysis; type: ADME, organism-based; design: dose 15 mg/kg, time infinity, route oral; conditions: in vivo
[25] = Cmax in CD1 mouse blood assessed as baloxavir acid level at 15 mg/kg, po administered as single dose measured up to 24 hrs by LC-MS/MS analysis; type: ADME, organism-based; design: dose 15 mg/kg, route oral; conditions: in vivo

COC(=O)OCOc1c2n(ccc1=O)N(C(c1ccccc1)c1ccccc1)[C@@H]1COCCN1C2=O showed an MRTlast [1] of 2.31 h, an AUClast [2] of 18065 ng·h/g and a Cmax [3] of 1882 ng/g. The Cmax [4] was 24707 ng/g, the Cmax [5] was 3431 ng/g and the Kel [6] was 0.44 h⁻¹. The AUClast [7] was 10575 ng·h/g, the AUC [8] was 44252 ng·h/g and the Tmax [9] was 0.5 h. The Tmax [10] was 0.5 h, the AUClast [11] was 3287 ng·h/mL and the CC50 at 24 h [12] was 57 µM. For the same compound, the AUC [13] was 34838 ng·h/g, the CC50 at 24 h [14] was 51 µM and the AUC [15] was 4713 ng·h/g. The Activity [16] was “Non-Toxic” and the t1/2 [17] was 1.71 h.
In the case of COC(=O)OCOc1c2n(ccc1=O)N([C@@H]1c3ccccc3SCc3c1ccc(F)c3F)[C@@H]1COCCN1C2=O [BALOXAVIR MARBOXIL], the “Ratio AUC” value [18] is reported as 234, the “Ratio AUC” value [19] is reported as 7.99 and the t1/2 [20] is reported as 11.3 h. For the same compound, the t1/2 [21] was 3.29 h, the MRTlast [22] was 2.92 h and the t1/2 [23] was 3.8 h. It also gave an AUC [24] of 21287 ng·h/g and a Cmax [25] of 215 ng/g.
